Earlier results as cited in patent US20170281701A1, “Formulation for the Nebulization of Oil Based Substances Suitable for Use with a Vibrating Mesh Nebulizer” (priority 2016, published 2017).

Experiments:
[1] = compared with Δ8-THC
[2] = not given; remark: listed apart in the source
[3] = smoked cannabis cigarette, of total available amount
[4] = oral dose of 20 mg in a chocolate cookie

Row | Compound | permeability through the skin relative to Δ8-THC [1] | absorption through the rectal route [2] | also measured
1 | C=C(C)[C@@H]1CCC(C)=C[C@H]1c1c(O)cc(CCCCC)cc1O [CBD, cannabidiol] | 10 fold |  | 
2 | CCCCCc1cc(O)c2c(c1)OC(C)(C)c1ccc(C)cc1-2 [CBN, cannabinol] | 10 fold |  | 
3 | CCCCCc1cc(O)c2c(c1)OC(C)(C)[C@@H]1CCC(C)=C[C@@H]21 [dronabinol] |  |  | administered dose entering the systemic circulation (orally administered, extensive first-pass metabolism): 10-20%
4 | CCCCCc1cc(O)c2c(c1)OC(C)(C)[C@@H]1CCC(C)=C[C@@H]21 [Δ^9-THC, Δ-9-tetrahydrocannabinol] |  | not absorbed | absorption (description) [4]: slow and unreliable; systemic availability [4]: 4-12%; maximum of THC content in a cannabis cigarette absorbed or delivered to the systemic circulation [3]: 25-27%
5 | CCCCCc1cc(OC(=O)CCC(=O)O)c2c(c1)OC(C)(C)[C@@H]1CCC(C)=C[C@@H]21 [Δ^9-THC-hemisuccinate] |  | is absorbed | 
